Usually CC50 stands for the concentration giving 50% cytotoxicity. One may read the EC50 as the concentration that produces a half-maximal response. As usually defined, the AC50 is the concentration at which the activity in the assay is half-maximal.

The target in experiment [1] is T1, Mitochondrial peptide methionine sulfoxide reductase (Bos taurus, UniProt P54149).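 Note: absorbance read-out, biochemical high-throughput dose-response screen for MsrA inhibitors, confirmatory; recombinant bovine MsrA coupled to E. coli TrxB with NADPH and selenocystamine; potency is for inhibitors of MsrA activity on DMSO substrate.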
T1 sequence (P54149 whole entry): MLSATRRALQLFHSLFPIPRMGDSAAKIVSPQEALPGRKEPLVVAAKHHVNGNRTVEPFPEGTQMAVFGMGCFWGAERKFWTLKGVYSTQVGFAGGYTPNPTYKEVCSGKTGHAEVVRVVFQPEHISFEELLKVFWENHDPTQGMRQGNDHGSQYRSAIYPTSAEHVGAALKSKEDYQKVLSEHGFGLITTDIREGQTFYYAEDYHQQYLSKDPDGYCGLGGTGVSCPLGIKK
It is filed as functional.

Experiment [2] concerns the target T2, Sentrin-specific protease 1 (Homo sapiens, UniProt Q9P0U3).
T2 sequence (Q9P0U3 whole entry): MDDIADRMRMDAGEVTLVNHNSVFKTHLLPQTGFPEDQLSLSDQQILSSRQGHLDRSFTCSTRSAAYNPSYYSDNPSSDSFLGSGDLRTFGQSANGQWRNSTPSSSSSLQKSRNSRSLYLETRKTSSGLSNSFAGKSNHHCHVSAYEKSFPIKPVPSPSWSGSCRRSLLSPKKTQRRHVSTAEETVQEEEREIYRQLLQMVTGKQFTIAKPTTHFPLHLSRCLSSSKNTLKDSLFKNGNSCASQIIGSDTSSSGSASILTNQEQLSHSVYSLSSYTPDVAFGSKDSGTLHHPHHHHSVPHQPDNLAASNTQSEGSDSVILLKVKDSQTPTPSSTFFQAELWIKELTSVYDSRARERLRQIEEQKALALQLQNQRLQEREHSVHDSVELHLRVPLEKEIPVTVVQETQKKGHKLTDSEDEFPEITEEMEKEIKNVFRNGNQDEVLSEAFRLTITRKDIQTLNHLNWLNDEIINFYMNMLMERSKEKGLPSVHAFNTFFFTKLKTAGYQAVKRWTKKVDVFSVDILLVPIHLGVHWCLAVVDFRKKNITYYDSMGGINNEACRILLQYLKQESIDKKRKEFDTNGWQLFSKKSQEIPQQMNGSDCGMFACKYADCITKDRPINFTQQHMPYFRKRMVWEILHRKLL
In words: Dose response confirmation of small molecule inhibitors of the catalytic domain of the SUMO protease, SENP1 in a FRET assay. Type of experiment: functional. The conditions noted are these: read-out: IC50_Mean.

Experiment [3] has as its target T2, Sentrin-specific protease 1. The experiment is described as follows: SENP1 catalytic domain blockers, concentration series – biochemical, kinetic FRET, dose response (AID 651697). It is filed as functional. The conditions noted are these: read-out: IC50_Mean.
In the next experiment the test system is CHO-K1. The experiment is described as follows: Counterscreen for antagonists of the orexin 1 receptor (OX1R; HCRTR1): Homogeneous time resolved fluorescence (HTRF)-based cell-based dose response assay to identify antagonists of the parental CHO-K1 cell line. [Related pubchem assays (depositor defined):AID434989, AID435008, AID463079, AID485270, AID492963, AID492964, AID492965, AID493232, AID504699, AID504701]. It is filed as functional. The conditions noted are these: Cricetulus griseus.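 Note: potency for inhibition of ATP-stimulated IP1 production as antagonists.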

Experiment [4] is described as follows: Counterscreen for antagonists of the orexin 1 receptor (OX1R; HCRTR1): Fluorescence-based cell-based high throughput dose response assay to identify antagonists of the parental CHO cell line. [Related pubchem assays (depositor defined):AID434989, AID435008, AID463079, AID485270, AID492963, AID492964, AID492965, AID493232, AID504699, AID504701]. It is filed as functional. (In general: Counterscreens check selectivity or assay interference.)

For experiment [5], the target named is T3, Orexin/Hypocretin receptor type 1 (Homo sapiens, UniProt O43613).
T3 sequence (O43613 whole entry): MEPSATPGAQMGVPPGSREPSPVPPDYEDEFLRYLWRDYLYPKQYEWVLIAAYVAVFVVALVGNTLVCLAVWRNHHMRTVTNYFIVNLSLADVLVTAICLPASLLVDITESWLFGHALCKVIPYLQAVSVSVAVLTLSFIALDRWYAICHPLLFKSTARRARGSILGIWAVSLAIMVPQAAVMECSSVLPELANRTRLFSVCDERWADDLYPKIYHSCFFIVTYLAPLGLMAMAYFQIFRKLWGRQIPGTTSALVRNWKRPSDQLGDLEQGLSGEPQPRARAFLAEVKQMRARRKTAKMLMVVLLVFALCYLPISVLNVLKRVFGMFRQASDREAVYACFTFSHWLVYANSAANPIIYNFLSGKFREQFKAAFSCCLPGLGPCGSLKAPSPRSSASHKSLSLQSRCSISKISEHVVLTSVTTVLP
The experiment is described as follows: Homogeneous Time Resolved Fluorescence (HTRF)-based cell-based high throughput dose response assay for antagonists of the orexin 1 receptor (OX1R; HCRTR1). [Related pubchem assays (depositor defined):AID434989, AID435008, AID463079, AID485270, AID492963, AID492964, AID492965, AID493232, AID504717, AID504718]. Type of experiment: functional. (Time-resolved FRET reads energy transfer from a long-lived donor to a nearby acceptor.)

The nature of experiment [6]: viability of uninfected HEp-2 cells – cell-based, HTS, cytotoxicity control for RSV inhibitor project, dose response (AID 2410). It is filed as functional. The conditions noted are these: human respiratory syncytial virus.
Experiment [7] addresses T4, Endoribonuclease toxin MazF (Escherichia coli K-12, UniProt P0AE70).
T4 sequence (P0AE70 whole entry): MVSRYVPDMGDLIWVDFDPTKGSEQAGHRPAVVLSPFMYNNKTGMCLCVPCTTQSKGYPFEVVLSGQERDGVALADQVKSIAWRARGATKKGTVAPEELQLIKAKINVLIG
The experiment is described as follows: activation of MazEF endoribonuclease cleavage – biochemical, fluorescence, single-stranded RNA substrate, uHTS hits, dose response (AID 588481). It is filed as functional.

Experiment [8] addresses T5, Orexin receptor type 2 (Homo sapiens, UniProt O43614).
T5 sequence (O43614 whole entry): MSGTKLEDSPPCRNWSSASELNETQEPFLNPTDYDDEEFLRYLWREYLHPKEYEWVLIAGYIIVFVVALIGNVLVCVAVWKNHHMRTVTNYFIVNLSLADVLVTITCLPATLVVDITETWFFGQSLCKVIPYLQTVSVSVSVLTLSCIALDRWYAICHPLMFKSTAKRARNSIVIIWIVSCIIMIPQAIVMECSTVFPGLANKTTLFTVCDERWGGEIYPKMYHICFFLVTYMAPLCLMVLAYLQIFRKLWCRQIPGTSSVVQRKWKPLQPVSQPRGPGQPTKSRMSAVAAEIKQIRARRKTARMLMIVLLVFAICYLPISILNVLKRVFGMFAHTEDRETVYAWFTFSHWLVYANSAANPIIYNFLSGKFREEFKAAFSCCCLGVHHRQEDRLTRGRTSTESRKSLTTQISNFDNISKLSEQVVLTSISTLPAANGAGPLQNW
The experiment is described as follows: Counterscreen assay for antagonists of the orexin 1 receptor (OX1R; HCRTR1): Fluorescence-based cell-based dose response assay for antagonists of the orexin 2 receptor (OX2R; HCRTR2), run by assay provider. It is filed as functional.

Experiment [9] deals with T4, Endoribonuclease toxin MazF. In words: substrate-only fluorescence increase artefacts – biochemical, single-stranded RNase substrate, counter-screen for MazEF activator project, dose response (AID 588502). Type of experiment: functional.
Experiment [10] concerns the target T5, Orexin receptor type 2. The experiment is described as follows: Counterscreen assay for antagonists of the orexin 1 receptor (OX1R; HCRTR1): Homogeneous Time Resolved Fluorescence (HTRF)-based cell-based dose response assay for antagonists of the orexin 2 receptor (OX2R; HCRTR2), run by assay provider. It is filed as functional.
Experiment [11] deals with T3, Orexin/Hypocretin receptor type 1. The experiment is described as follows: Fluorescence-based cell-based high throughput dose response assay for antagonists of the orexin 1 receptor (OX1R; HCRTR1). [Related pubchem assays (depositor defined):AID434989, AID435008, AID463079, AID485270, AID492963, AID492964, AID492965, AID493232, AID504717, AID504718]. It is filed as functional.

For experiment [12], the target named is Ras and Rab interactor 1/Tyrosine-protein kinase ABL1 (Homo sapiens, UniProt P00519+Q13671). It is filed as functional.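 Note: biochemical TR-FRET dose-response test measuring inhibition of binding between Rin1 and Abl proteins.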
Experiment [13] in a line: Trypanosoma cruzi growth suppression in host cells – NIH3T3 host cells, beta-gal luminescence, confirmation (AID 2044).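 Note: intracellular parasites grown in NIH/3T3 mouse fibroblasts as host cells; luminescent beta-galactosidase reporter signal from transgenic T. cruzi replicating inside host cells; inhibitors lower the luminescence signal.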 Type of experiment: functional, cell-based.
The target in experiment [14] is T6, DNA repair and recombination protein RAD54-like (Homo sapiens, UniProt Q92698).
T6 sequence (Q92698 whole entry): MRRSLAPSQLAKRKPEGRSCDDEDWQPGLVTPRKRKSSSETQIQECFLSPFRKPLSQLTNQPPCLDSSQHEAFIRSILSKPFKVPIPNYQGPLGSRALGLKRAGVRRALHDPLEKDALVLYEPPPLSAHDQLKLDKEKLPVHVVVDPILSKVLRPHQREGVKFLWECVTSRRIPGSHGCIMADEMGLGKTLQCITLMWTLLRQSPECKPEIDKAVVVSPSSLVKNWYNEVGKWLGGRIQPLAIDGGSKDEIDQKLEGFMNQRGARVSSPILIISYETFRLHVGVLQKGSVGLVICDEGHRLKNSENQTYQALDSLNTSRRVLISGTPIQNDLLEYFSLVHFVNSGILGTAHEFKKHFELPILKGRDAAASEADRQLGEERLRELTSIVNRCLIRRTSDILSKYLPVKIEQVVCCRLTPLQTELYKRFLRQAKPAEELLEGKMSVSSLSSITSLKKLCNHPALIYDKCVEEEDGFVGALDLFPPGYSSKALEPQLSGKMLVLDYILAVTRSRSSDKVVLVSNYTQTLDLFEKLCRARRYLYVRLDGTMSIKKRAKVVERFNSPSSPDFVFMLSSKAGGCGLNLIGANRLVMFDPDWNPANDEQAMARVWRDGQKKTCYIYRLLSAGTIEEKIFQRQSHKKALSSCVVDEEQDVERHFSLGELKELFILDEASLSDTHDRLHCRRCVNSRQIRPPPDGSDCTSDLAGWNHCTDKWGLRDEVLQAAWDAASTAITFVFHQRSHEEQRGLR
In words: RAD54 Holliday junction migration blockers – biochemical, fluorescence, cherry-picked samples, dose series, confirmation (AID 651657). It is filed as functional.

A short description of experiment [15]: NIH3T3 cell viability loss – ATP luminescence, mouse fibroblasts, counter-screen, dose response (AID 2010).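 Note: cells exposed to compound for about 90 hours before reading.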 Type of experiment: functional, cell-based.
Experiment [16] is described as follows: reduction of Shn3 3'UTR-driven luciferase in osteoblasts – cell-based, Clone20 osteoblasts, firefly luciferase, cherry-picked, dose response (AID 624132).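 Note: firefly luciferase luminescence from reporter carrying the Shn3 3'UTR in osteoblasts.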 It is filed as functional.
The nature of experiment [17]: non-specific 3'UTR reporter inhibition in Clone20-Shn3RL – cell-based, Renilla luciferase, cherry-picked, counter-screen for Shn3 inhibitor project, dose response (AID 624133). It is filed as functional.
Experiment [18] in a line: loss of viability in HepG2 cells – cell-based, CellTiter-Glo, cherry-picked, cytotoxicity control for Shn3 inhibitor project, dose response (AID 624134). Type of experiment: functional. For orientation: ATP-based viability assays read luminescence as a measure of living cells.

The source made the active and inactive calls.

Ras and Rab interactor 1/Tyrosine-protein kinase ABL1, sequence (P00519 whole entry): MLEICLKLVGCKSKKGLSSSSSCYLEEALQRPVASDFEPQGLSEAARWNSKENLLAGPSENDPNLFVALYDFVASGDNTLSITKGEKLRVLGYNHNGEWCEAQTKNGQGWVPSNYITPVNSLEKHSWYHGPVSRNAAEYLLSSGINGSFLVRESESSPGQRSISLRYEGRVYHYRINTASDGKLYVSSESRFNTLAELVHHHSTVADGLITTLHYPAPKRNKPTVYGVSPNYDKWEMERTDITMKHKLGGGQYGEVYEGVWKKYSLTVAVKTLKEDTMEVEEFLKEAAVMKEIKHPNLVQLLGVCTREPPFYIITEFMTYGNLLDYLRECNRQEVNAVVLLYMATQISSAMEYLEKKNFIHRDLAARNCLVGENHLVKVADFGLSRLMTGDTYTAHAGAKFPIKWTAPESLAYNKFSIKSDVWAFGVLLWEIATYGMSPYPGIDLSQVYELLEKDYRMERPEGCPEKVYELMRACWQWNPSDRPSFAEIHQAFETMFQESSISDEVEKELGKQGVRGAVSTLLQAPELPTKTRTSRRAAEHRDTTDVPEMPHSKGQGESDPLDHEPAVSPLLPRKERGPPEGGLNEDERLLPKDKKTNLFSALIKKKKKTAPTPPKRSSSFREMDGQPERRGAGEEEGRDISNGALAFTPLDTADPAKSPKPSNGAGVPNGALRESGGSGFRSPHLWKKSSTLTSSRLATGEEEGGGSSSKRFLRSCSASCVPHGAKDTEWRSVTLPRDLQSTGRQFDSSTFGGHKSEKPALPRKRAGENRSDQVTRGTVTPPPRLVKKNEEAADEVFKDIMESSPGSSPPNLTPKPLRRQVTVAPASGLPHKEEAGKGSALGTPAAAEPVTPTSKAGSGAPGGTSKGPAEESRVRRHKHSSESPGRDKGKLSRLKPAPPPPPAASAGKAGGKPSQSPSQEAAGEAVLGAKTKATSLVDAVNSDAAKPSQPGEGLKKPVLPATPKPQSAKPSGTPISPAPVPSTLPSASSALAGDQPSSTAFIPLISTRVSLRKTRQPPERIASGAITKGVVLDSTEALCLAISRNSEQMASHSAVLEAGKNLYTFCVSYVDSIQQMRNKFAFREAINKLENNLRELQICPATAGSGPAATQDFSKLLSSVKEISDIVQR
Ras and Rab interactor 1/Tyrosine-protein kinase ABL1, sequence (Q13671 whole entry): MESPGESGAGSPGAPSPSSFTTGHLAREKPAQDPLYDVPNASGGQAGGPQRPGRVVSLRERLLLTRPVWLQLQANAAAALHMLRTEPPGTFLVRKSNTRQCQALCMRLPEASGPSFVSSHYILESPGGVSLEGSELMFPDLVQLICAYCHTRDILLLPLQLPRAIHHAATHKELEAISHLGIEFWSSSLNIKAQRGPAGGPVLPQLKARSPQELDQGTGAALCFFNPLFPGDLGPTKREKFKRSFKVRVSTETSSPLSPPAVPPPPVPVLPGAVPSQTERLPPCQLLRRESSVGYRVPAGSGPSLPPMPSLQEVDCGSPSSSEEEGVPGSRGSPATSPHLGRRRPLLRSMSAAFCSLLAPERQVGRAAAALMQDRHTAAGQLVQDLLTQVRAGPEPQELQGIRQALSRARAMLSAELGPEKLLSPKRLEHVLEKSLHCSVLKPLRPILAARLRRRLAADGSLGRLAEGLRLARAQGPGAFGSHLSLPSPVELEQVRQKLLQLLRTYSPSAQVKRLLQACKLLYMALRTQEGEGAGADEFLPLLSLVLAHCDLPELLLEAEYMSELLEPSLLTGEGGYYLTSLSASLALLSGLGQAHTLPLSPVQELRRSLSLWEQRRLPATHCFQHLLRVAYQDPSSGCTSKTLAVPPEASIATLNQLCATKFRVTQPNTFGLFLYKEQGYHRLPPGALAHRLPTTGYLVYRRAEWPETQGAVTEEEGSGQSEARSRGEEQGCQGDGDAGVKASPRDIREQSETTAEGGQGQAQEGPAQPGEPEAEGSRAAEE

Take `O=C(NN=Cc1sc(=O)[n-]c1-[n+]1ccc(-c2ccncc2)cc1)c1ccccc1`: the IC50 in [1] is 155 µM (inactive).

Regarding `CCN(CC)c1nc2cc(C)ccc2cc1/C=C(\C#N)C(N)=O`, the results for the IC50 in experiment [2] and in experiment [3] were 20 µM (inactive) and 17.3 µM (active), respectively.

As to `Cc1cccc2c3nc4ccccc4nc3n(C)c12`, the IC50 in the experiment on CHO-K1 was > 66.2 µM (inactive); in experiment [4], > 49.7 µM (inactive); in experiment [5] it was 1.33 µM (active); on Orexin receptor type 2 [8] it was 11 µM (inactive); on Orexin receptor type 2 [10], 5.76 µM (active); in [11] it was 8.12 µM (active). For the same compound, the CC50 in experiment [6] is > 50 µM (active). Moreover, the EC50 in experiment [7] is > 99 µM (inactive); in [9] it was 51.9 µM (inactive).

For the compound `COCCCNC(=O)CCC(=O)NNc1nc2ccccc2c2nc(-c3ccccc3)nn12`, the IC50 in the experiment on CHO-K1 is > 66.2 µM (inactive); in experiment [4] it was > 49.7 µM (inactive); in [5] it was 3.55 µM (active); on Orexin receptor type 2 [8], > 88.8 µM (inactive); on Orexin receptor type 2 [10], > 50 µM (inactive); in experiment [11], 11.7 µM (inactive).

With `OCCN1CCN(c2ncnc3c2sc2nc(N4CCOCC4)c4c(c23)CCC4)CC1`, the IC50 in experiment [12] was 24.2 µM (inactive). The EC50 in experiment [13] is 0.241 µM (active); in experiment [15] it was > 60 µM (not active). Besides, the AC50 in [14] is 11.4 µM (active).

In the case of `COc1ccccc1NC(=O)[C@@H]1CCCN1S(=O)(=O)c1ccc(Cl)cc1`, the IC50 in the experiment with CHO-K1 was > 66.2 µM (inactive); in experiment [4] it was > 49.7 µM (inactive); in [5], 1.21 µM (active); on Orexin receptor type 2 [8], 11 µM (inactive); on Orexin receptor type 2 [10] it was 6.28 µM (active); in experiment [11], 13.2 µM (inactive).

Turning to `CN(C(=O)c1ccc(NC(=O)Cc2cccc(NC(=O)C3CCN(C(=O)C4CCCCC4)CC3)c2)cc1)C1CC1`, the IC50 in experiment [12] was 18.9 µM (inactive).

As to `Cn1cnc([N+](=O)[O-])c1S(=O)(=O)Oc1ccccc1`, the AC50 in experiment [16] is 3.83 µM (active); in experiment [17], 24.1 µM (active); in [18], 42.3 µM (active). For the same compound, the IC50 in experiment [1] is 48 µM (inactive).

(Values after ChEMBL document CHEMBL1201862, “PubChem BioAssay data set” (2004).)
